Source: paper PMC11063903, “Engineering a human P2X2 receptor with altered ligand selectivity in yeast” (The Journal of Biological Chemistry, 2024)
Where a chain is given by its changes, count along the chain named.

Experiments:
[1] = biological target: T1, P2X2 F301W+F303Y (Homo sapiens, UniProt Q9UBL9, F301W/F303Y); experiment: Fast GCaMP-mScarletI assay in yeast, P2X2 F301W+F303Y; assay type: cell-based; conditions: n = 3; for Bottom, best fit value / Hillslope, best fit value / Top, best fit value: four-parameter logistic fit of ΔF/ΔT; for EC50: four-parameter logistic fit, unit inferred, unit M, read-out: EC50, best fit value
T1 construct: expressed in transfected cells; host or cells: S. cerevisiae BY4741 background
T1 sequence (Q9UBL9 1-471 F301W/F303Y): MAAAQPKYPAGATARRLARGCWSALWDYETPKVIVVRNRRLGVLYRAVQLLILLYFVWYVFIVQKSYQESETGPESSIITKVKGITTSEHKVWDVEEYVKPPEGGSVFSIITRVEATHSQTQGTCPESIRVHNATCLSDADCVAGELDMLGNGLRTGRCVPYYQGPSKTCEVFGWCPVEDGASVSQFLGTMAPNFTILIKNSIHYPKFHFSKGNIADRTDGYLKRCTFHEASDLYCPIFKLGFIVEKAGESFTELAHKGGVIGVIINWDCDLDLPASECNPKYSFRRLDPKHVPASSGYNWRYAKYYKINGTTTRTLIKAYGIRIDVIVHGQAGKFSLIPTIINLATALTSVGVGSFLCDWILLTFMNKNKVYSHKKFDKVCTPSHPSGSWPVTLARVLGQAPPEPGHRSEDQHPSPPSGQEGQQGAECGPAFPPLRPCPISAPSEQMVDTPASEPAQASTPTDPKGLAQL
Method: (§1) Figure 4 Unnatural-ligand gating in LBD libraries.A, WT P2X2 was tested with 1 mM ATP, 500 μM AMP-PNP, and compared to ATP with the broken receptor (K81C K83C) control with 1 mM ATP in the fast GCaMP-mScarletI assay (n = 3). […] B, heat map summarizing AMP-PNP signaling (ΔF/ΔT, fast GCaMP-mScarletI assay) in the site-saturation libraries (n = 2–3). All values are normalized to WT P2X2 with saturating amounts of AMP-PNP (500 μM) and therefore represent low signal (ΔF/ΔT) compared to the ATP ligand. C, F301W, F303Y, and A304W were combinatorially combined and tested against the WT, K81C K83C broken P2X2, and the single mutant clones with both ATP (1 mM, black) and AMP-PNP (500 μM, pink). […] Values here represent signal onset and are not normalized to a positive control (n = 2–5). D–K, dose response of each P2X variant with both ATP (black) and AMP-PNP (pink) in the fast GCaMP-mScarletI assay (n = 3). Statistics were performed via one-way ANOVA with Dunnett’s multiple comparisons with to the “broken” K81C K83C negative control. ∗ represents a p value ≤0.05, ∗∗ is p ≤ 0.01, and ∗∗∗ is p ≤ 0.001.
(§2) The combined mutations were synergistic, with F303Y + A304W having a predicted additive effect of ca. Ten-fold, relative to the 73-fold seen.
(§3) GCaMP assays were performed as follows. P2X2 GCaMP strains were designed with a bi-cistronic reporter, in which the GCaMP protein was followed by a 2A peptide and a mScarletI reporter ([53]). The co-translated mScarletI was designed to act as a control for plasmid loss, GCaMP breakage via nonsense mutation, and contamination. […] P2X2-GCaMP strains were cultured and induced as previously described. Samples were induced for 24 h to allow for the accumulation of the mature GCaMP protein. Cells were washed three times in 0.1 M MES/Tris buffer and resuspended with MES/Tris with supplemental calcium. Cells were loaded onto a black, clear bottom microplate and imaged on a FlexStation3 plate reader. Samples were imaged in “flex” mode. Samples were imaged for 48 s at an interval of 1.6 s. Fluorescence was measured with an excitation at 485 nm, and emission 525 nm. At the 21 s mark, 100 μl ligand solution was transferred to the cells. For strains with mScarlet, fluorescence was read with excitation 570 nm/emission 610 nm. Slopes were calculated from the last 6 points of measurement and were normalized to the positive control samples. Any replicate in which the mScarlet value was measured to be over 2 standard deviations less than the mean for that set was discarded from further analysis.
(§4) For multiple comparisons in the site-saturation screening data, One-way ANOVA with Dunnett’s multiple comparisons test was performed where every sample was compared to the “broken” negative control. Significance was plotted where ∗ represents a p value ≤0.05, ∗∗ is p ≤0.01, and ∗∗∗ is p ≤0.001. Dose–response curves were fit with nonlinear regression software using a four-parameter logistic curve. All statistics were calculated and plotted in Graphpad Prism software.

[2] = biological target: T2, P2X2 F301W+F303Y+A304W (Homo sapiens, UniProt Q9UBL9, A304W/F301W/F303Y); experiment: Fast GCaMP-mScarletI assay in yeast, P2X2 F301W+F303Y+A304W; assay type: cell-based; conditions: for Bottom, best fit value / Hillslope, best fit value / Top, best fit value: four-parameter logistic fit of ΔF/ΔT
T2 construct: expressed in transfected cells; host or cells: S. cerevisiae BY4741 background
T2 sequence (Q9UBL9 1-471 F301W/F303Y/A304W): T1 sequence (Q9UBL9 1-471 F301W/F303Y) with A304W
Method: as §1, §2, §3, §4

SMILES | Bottom, best fit value [1] | Hillslope, best fit value [1] | Top, best fit value [1] | EC50 [1] [µM] | Bottom, best fit value ([2]; n = 3) | Hillslope, best fit value ([2]; n = 3) | Top, best fit value ([2]; n = 3) | EC50 ([2]; four-parameter logistic fit, n = 3, unit inferred, unit M, read-out: EC50, best fit value) [µM] | improvement compared to the WT channel (rate of signal onset ΔF/ΔT) ([2]; at 500 μM AMP-PNP) [fold]
Nc1ncnc2c1ncn2[C@@H]1O[C@H](COP(=O)(O)OP(=O)(O)OP(=O)(O)O)[C@@H](O)[C@H]1O [ATP] | -0.11 | 0.81 | 46.60 | 3.01 | 0.79 | 2.37 | 148.40 | 8.88 | 
Nc1ncnc2c1ncn2[C@@H]1O[C@H](COP(=O)(O)OP(=O)(O)NP(=O)(O)O)[C@@H](O)[C@H]1O [AMP-PNP] | 0.3038 | 1.304 | 12.6 | 260 | -0.1127 | 1.945 | 97.49 |  | 24
